Results published in patent US20120148509A1, “COMPOSITION FOR ALLEVIATING ULTRAVIOLET IRRADIATION-INDUCED DAMAGE” (Shiseido Company, Ltd., priority 2009, published 2012).
Where two headings read alike, the source gives them in different places.

Assays:
[1] = test system: human neonatal dermal fibroblast; conditions: for percentage of the viable cell: human, 24 h; for fluorescent intensity of Alamar Blue / effect on cell damage, in words: UV-A 9 J/cm^2, FIG. 4; for fluorescent intensity of Alamar Blue: without irradiation 794, negative control 140; for effect on cell damage, in words: pre-irradiation addition
Procedure: (§1) The cell employed was a commercially available human neonatal dermal fibroblast (Cryo NHDF-Neo, Sanko-Junyaku Co., Ltd.). This cell was inoculated at 2×10^5 cells/mL to a commercially available culture dish of 35 mm in diameter (BD FALCON 353001, Becton Dickinson Japan), where it was cultured in a commercially available cell culture medium (D-MEM (1 g/L glucose, Wako Pure Chemical Industries, Ltd.) supplemented with 10% fetal bovine serum (hereinafter, referred to as “normal medium”). The cell described above may be cultured in the normal medium described above supplemented with an antibiotic (15240-062, Gibco) at 1%. This cell was cultured for about 24 hours in a 5% CO2 and saturated water vapor atmosphere at 37° C. (degrees Celsius).
(§2) Thereafter, the culture medium for culturing the cell described above was switched to 1 mL of a BSO medium supplemented with a glutathione biosynthesis inhibitor BSO (L-buthionine-(S,R)-sulfoximine, Wako Pure Chemical Industries, Ltd.) at 1×10^−3%, where the culture was conducted for about 24 hours in a 5% CO2 and saturated water vapor atmosphere at 37° C. (degrees Celsius). The BSO medium described above was prepared by a 200-fold dilution of a stock solution containing 0.2% BSO dissolved in ethyl alcohol with the normal medium described above.
For determining the effect of adding methionine before ultraviolet irradiation (hereinafter, referred to as “pre-irradiation addition of methionine”), the culture medium was switched to a BSO medium added with 0.0001 to 100 (micro-molar) L-methionine (131-01603, Wako Pure Chemical Industries Ltd.) or D-methionine (2807, Peptide Institute Inc.) 24 hours before the irradiation. The ultraviolet irradiation after switching into a medium added with 0.1 μM (micro-molar) D-proline (165-14671, Wako Pure Chemical Industries Ltd.) was employed as a positive control, while the ultraviolet irradiation to the medium still being free of such an added amino acid was employed as a negative control.
(§3) […] was dissolved in a distilled water at 2×10^−3%, and the resultant solution was subjected to a 200-fold dilution (final concentration: 1×10^−5%) with a phosphate buffered saline PBS (+) containing calcium ion and magnesium ion to obtain a medium (hereinafter, referred to as “UV irradiation medium”), which was warmed preliminarily to 37° C. before use.
(§4) Before UV-A irradiation, the culture medium was replaced with 1 mL of the UV irradiation medium described above. […] The UV dose was measured using UV RADIOMETER UVR-3036/S (Topcon Corporation).
(§5) Thereafter, the culture medium was supplemented with Alamar Blue (trade mark, Biosource, Biosource International Inc. and Invitrogen) at a final concentration of […], and its supernatant was determined for the fluorescent intensity three hours later with an excitation wavelength of 544 nm and a fluorescent wavelength of 590 nm as described by Ahmed S. A. et al. J. Immunol. Method. 170, 211-224 (1994)) and in accordance with the manufacture's instruction. The percentage of the viable cell was obtained as a percentage of a quotient calculated by dividing the fluorescent intensity of Alamar Blue under each experimental condition by the fluorescent intensity in the negative control group containing no added amino acid.
(§6) the cell culture, the addition of amino acids before the UV irradiation, the UV irradiation, the addition of amino acids after the UV irradiation and the cell damage measurement were conducted similarly to Example 1. The ultraviolet light (UV-A) was irradiated at 7.5 or 9 J/cm^2.

[2] = test system: human neonatal dermal fibroblast; assay: UV-A irradiation-induced cell damage, amino acid added after irradiation (Alamar Blue); type: cell-based; conditions: for fluorescent intensity of Alamar Blue: without irradiation 764, negative control 348; for percentage of the viable cell: UV-A 8 J/cm^2, FIG. 3
Procedure: as §1, §2, §3, §4
After UV-A irradiation at 8 J/cm^2, the medium was returned to the normal medium described above, and the culture was conducted in a 5% CO2 and saturated water vapor atmosphere at 37° C. (degrees Celsius) for 40 hours. For determining the effect of adding methionine after UV irradiation (hereinafter, referred to as “post-irradiation addition of methionine”), this 40-hour cultured medium was added with 0.001 to 100 μM (micro-molar) L- or D-methionine. The ultraviolet irradiation after switching into a medium added with 0.1 μM (micro-molar) D-proline was employed as a positive control, while the ultraviolet irradiation to the medium still being free of such an added amino acid was employed as a negative control.
as §5, §6

[3] = pre-irradiation addition 0.1 μM
[4] = post-irradiation addition 0.1 μM, UV-A 7.5 J/cm^2, FIG. 6
[5] = post-irradiation addition 0.1 μM

Structure (SMILES)	percentage of the viable cell ([1]; 0.0001 μM)	percentage of the viable cell ([1]; 0.01 μM)	percentage of the viable cell ([1]; 10 μM)	fluorescent intensity of Alamar Blue [1, 3]	fluorescent intensity of Alamar Blue ([1]; pre-irradiation addition 1 μM)	fluorescent intensity of Alamar Blue ([1]; pre-irradiation addition 10 μM)	effect on cell damage, in words [1]	fluorescent intensity of Alamar Blue [2, 4]	percentage of the viable cell ([1]; 1 μM)	percentage of the viable cell ([1]; 100 μM)	percentage of the viable cell [2, 5]	other results
N[C@H](CO)C(=O)O [D-serine]	74%	92%	93%	402	371	491	statistically significant increase in the fluorescent intensity	735				fluorescent intensity of Alamar Blue ([1]; pre-irradiation addition 0.01 μM): 445; fluorescent intensity of Alamar Blue ([2]; post-irradiation addition 0.01 μM, UV-A 7.5 J/cm^2, FIG. 6): 697; fluorescent intensity of Alamar Blue ([2]; post-irradiation addition 1 μM, UV-A 7.5 J/cm^2, FIG. 6): 742; fluorescent intensity of Alamar Blue ([2]; post-irradiation addition 10 μM, UV-A 7.5 J/cm^2, FIG. 6): 664; fluorescent intensity of Alamar Blue ([2]; post-irradiation addition 100 μM, UV-A 7.5 J/cm^2, FIG. 6): 663; effect on cell damage, in words ([2]; post-irradiation addition, UV-A 7.5 J/cm^2, FIG. 6): statistically significant increase in the fluorescent intensity
CSCC[C@H](N)C(=O)O [L-methionine]		72%	73%						45%	62%		percentage of the viable cell ([1]; 0.001 μM): 40%; percentage of the viable cell ([1]; 0.1 μM): 67%
N[C@@H](CO)C(=O)O [L-serine, reference compound]				265	227	270	almost no reduction in the cell damage					
CSCC[C@@H](N)C(=O)O [D-methionine]	50%	102%	114%						97%	76%	84%	percentage of the viable cell ([2]; post-irradiation addition 0.01 μM): 93%; percentage of the viable cell ([2]; post-irradiation addition 1 μM): 82%; percentage of the viable cell ([2]; post-irradiation addition 10 μM): 81%; percentage of the viable cell ([2]; post-irradiation addition 100 μM): about 87%
O=C(O)[C@H]1CCCN1 [D-proline, reference compound]				610				579			82%	
